# In ChEMBL document CHEMBL5143746, “SJPYT-195: A Designed Nuclear Receptor Degrader That Functions as a Molecular Glue Degrader of GSPT1” (ACS Med Chem Lett, 2022):
# pEC50: −log10 of the molar value. Activity calls are given as the source filed them. The calls are words filed in the database; no cut-off is given here.
# Legend:
# [1] = target: Protein cereblon/DNA damage-binding protein 1 (Homo sapiens, UniProt Q96SW2); assay: Displacement of BODIPY FL thalidomide from 6His-tagged CRBN/DDB1 (unknown origin) expressed in baculovirus infected Sf9 insect cells incubated for 1 min under shaking condition followed by 60 mins incubation under dark condition by TR-FRET assay
# Sequence of Protein cereblon/DNA damage-binding protein 1 (Q96SW2 whole entry, the tested form may be a part): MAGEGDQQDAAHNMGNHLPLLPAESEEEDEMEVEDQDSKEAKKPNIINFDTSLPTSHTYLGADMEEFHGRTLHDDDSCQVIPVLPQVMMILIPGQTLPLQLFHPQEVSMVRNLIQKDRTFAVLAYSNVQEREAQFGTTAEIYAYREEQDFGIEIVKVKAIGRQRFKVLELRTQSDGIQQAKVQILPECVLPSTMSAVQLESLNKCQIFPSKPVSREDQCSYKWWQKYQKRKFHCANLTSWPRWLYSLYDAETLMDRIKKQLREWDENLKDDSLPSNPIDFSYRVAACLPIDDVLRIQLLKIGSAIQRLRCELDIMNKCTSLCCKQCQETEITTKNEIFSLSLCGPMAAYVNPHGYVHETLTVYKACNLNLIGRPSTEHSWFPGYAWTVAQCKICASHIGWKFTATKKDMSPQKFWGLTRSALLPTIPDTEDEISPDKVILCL
# Sequence of Protein cereblon/DNA damage-binding protein 1 (Q16531 whole entry, further chain, the tested form may be a part): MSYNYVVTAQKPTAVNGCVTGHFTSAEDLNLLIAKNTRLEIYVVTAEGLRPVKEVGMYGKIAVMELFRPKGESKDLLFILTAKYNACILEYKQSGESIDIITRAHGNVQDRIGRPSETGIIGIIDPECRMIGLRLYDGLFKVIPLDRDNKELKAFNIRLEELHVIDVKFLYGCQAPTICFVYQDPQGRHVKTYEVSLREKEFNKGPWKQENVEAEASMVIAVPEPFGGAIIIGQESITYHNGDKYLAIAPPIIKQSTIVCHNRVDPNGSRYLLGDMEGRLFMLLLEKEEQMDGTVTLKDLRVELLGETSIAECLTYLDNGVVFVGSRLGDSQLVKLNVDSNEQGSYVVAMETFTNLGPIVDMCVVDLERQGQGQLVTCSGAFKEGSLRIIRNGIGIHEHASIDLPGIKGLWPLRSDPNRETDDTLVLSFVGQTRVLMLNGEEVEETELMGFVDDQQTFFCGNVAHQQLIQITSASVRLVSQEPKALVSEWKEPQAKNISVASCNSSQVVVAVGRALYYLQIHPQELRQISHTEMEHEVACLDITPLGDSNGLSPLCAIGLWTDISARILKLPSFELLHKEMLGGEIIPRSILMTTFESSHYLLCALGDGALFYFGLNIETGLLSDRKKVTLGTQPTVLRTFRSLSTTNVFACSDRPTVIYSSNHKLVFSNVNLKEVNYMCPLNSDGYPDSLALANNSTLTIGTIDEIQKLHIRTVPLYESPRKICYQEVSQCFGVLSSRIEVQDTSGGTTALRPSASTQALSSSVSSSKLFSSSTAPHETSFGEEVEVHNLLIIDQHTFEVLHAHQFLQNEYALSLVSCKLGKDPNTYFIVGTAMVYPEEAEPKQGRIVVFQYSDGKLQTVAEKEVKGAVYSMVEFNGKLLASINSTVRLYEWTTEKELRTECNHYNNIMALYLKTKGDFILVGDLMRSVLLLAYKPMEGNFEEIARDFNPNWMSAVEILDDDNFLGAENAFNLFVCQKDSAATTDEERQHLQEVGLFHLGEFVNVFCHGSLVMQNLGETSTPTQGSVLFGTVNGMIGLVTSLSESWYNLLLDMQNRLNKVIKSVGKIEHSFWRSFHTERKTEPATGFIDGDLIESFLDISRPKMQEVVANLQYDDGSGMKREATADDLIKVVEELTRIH
# [2] = target: T1, Protein cereblon/Peptidyl-prolyl cis-trans isomerase FKBP1A/Nuclear receptor subfamily 1 group I member 2 (Homo sapiens, UniProt P62942+O75469+Q96SW2, F37V); assay: Molecular glue activity at HA-tagged […]/2HA-tagged PXR fused HiBiT-tagged FKBP12 (F36V) mutant (unknown origin) expressed in HepG2 cells assessed as induction of PXR degradation by measuring change in CRBN expression at 0.01 uM measured after 24 hrs by Western blot analysis relative to control; type: cell-based; conditions: hepg2, 24 h
# T1 sequence (P62942 2-108 F37V limits assumed, stated change not applied, one chain of several): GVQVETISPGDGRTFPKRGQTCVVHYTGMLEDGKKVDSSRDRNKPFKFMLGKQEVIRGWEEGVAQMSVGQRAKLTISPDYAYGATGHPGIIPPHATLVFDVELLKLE
# T1 sequence (Q96SW2 whole entry, stated change not applied, one chain of several, the tested form may be a part): as the sequence (Q96SW2 whole entry, the tested form may be a part) above
# [3] = target: T1, Protein cereblon/Peptidyl-prolyl cis-trans isomerase FKBP1A/Nuclear receptor subfamily 1 group I member 2; assay: Molecular glue activity at HA-tagged […]/2HA-tagged PXR fused HiBiT-tagged FKBP12 (F36V) mutant (unknown origin) expressed in HepG2 cells assessed as induction of PXR degradation by measuring change in CRBN expression at 1 uM measured after 24 hrs by Western blot analysis relative to control; type: cell-based; conditions: hepg2, 24 h
# [4] = tested on: HepG2; assay: Binding affinity to 2HA-tagged PXR fused HiBiT-tagged FKBP12 (F36V) mutant (unknown origin) expressed in HepG2 cells assessed as change in FKBP-PXR expression at 0.01 uM measured after 24 hrs by Western blot analysis relative to control; type: cell-based; conditions: Homo sapiens
# [5] = target: T1, Protein cereblon/Peptidyl-prolyl cis-trans isomerase FKBP1A/Nuclear receptor subfamily 1 group I member 2; assay: Molecular glue activity at HA-tagged […]/2HA-tagged PXR fused HiBiT-tagged FKBP12 (F36V) mutant (unknown origin) expressed in HepG2 cells assessed as induction of PXR degradation by measuring change in FKBP-PXR expression at 10 uM measured after 24 hrs by Western blot analysis relative to control; type: cell-based; conditions: hepg2, 24 h
# [6] = tested on: HepG2; assay: Binding affinity to 2HA-tagged PXR fused HiBiT-tagged FKBP12 (F36V) mutant (unknown origin) expressed in HepG2 cells assessed as change in FKBP-PXR expression at 0.0001 uM measured after 24 hrs by Western blot analysis relative to control; type: cell-based; conditions: Homo sapiens
# [7] = tested on: HepG2; assay: Binding affinity to 2HA-tagged PXR fused HiBiT-tagged FKBP12 (F36V) mutant (unknown origin) expressed in HepG2 cells assessed as change in FKBP-PXR expression at 1 uM measured after 24 hrs by Western blot analysis relative to control; type: cell-based; conditions: Homo sapiens
# [8] = target: T1, Protein cereblon/Peptidyl-prolyl cis-trans isomerase FKBP1A/Nuclear receptor subfamily 1 group I member 2; assay: Molecular glue activity at HA-tagged […]/2HA-tagged PXR fused HiBiT-tagged FKBP12 (F36V) mutant (unknown origin) expressed in HepG2 cells assessed as induction of PXR degradation by measuring change in FKBP-PXR expression at 1 uM measured after 24 hrs by Western blot analysis relative to control; type: cell-based; conditions: hepg2, 24 h
# [9] = tested on: HepG2; assay: Binding affinity to 2HA-tagged PXR fused HiBiT-tagged FKBP12 (F36V) mutant (unknown origin) expressed in HepG2 cells assessed as change in FKBP-PXR expression at 10 uM measured after 24 hrs by Western blot analysis relative to control; type: cell-based; conditions: Homo sapiens
# [10] = target: T1, Protein cereblon/Peptidyl-prolyl cis-trans isomerase FKBP1A/Nuclear receptor subfamily 1 group I member 2; assay: Molecular glue activity at HA-tagged […]/2HA-tagged PXR fused HiBiT-tagged FKBP12 (F36V) mutant (unknown origin) expressed in HepG2 cells assessed as induction of PXR degradation by measuring change in FKBP-PXR expression at 0.01 uM measured after 24 hrs by Western blot analysis relative to control; type: cell-based; conditions: hepg2, 24 h
# [11] = target: T1, Protein cereblon/Peptidyl-prolyl cis-trans isomerase FKBP1A/Nuclear receptor subfamily 1 group I member 2; assay: Molecular glue activity at HA-tagged […]/2HA-tagged PXR fused HiBiT-tagged FKBP12 (F36V) mutant (unknown origin) expressed in HepG2 cells assessed as induction of PXR degradation by measuring change in FKBP-PXR expression at 0.0001 uM measured after 24 hrs by Western blot analysis relative to control; type: cell-based; conditions: hepg2, 24 h
# [12] = tested on: HepG2; assay: Binding affinity to 2HA-tagged PXR fused HiBiT-tagged FKBP12 (F36V) mutant (unknown origin) expressed in HepG2 cells assessed as change in FKBP-PXR expression at 0.1 uM measured after 24 hrs by Western blot analysis relative to control; type: cell-based; conditions: Homo sapiens
# [13] = target: T1, Protein cereblon/Peptidyl-prolyl cis-trans isomerase FKBP1A/Nuclear receptor subfamily 1 group I member 2; assay: Molecular glue activity at HA-tagged […]/2HA-tagged PXR fused HiBiT-tagged FKBP12 (F36V) mutant (unknown origin) expressed in HepG2 cells assessed as induction of PXR degradation by measuring change in CRBN expression at 0.001 uM measured after 24 hrs by Western blot analysis relative to control; type: cell-based; conditions: hepg2, 24 h
# [14] = target: T1, Protein cereblon/Peptidyl-prolyl cis-trans isomerase FKBP1A/Nuclear receptor subfamily 1 group I member 2; assay: Molecular glue activity at HA-tagged […]/2HA-tagged PXR fused HiBiT-tagged FKBP12 (F36V) mutant (unknown origin) expressed in HepG2 cells assessed as induction of PXR degradation by measuring change in CRBN expression at 0.1 uM measured after 24 hrs by Western blot analysis relative to control; type: cell-based; conditions: hepg2, 24 h
# [15] = target: T1, Protein cereblon/Peptidyl-prolyl cis-trans isomerase FKBP1A/Nuclear receptor subfamily 1 group I member 2; assay: Molecular glue activity at HA-tagged […]/2HA-tagged PXR fused HiBiT-tagged FKBP12 (F36V) mutant (unknown origin) expressed in HepG2 cells assessed as induction of PXR degradation by measuring change in CRBN expression at 10 uM measured after 24 hrs by Western blot analysis relative to control; type: cell-based; conditions: hepg2, 24 h
# [16] = target: T1, Protein cereblon/Peptidyl-prolyl cis-trans isomerase FKBP1A/Nuclear receptor subfamily 1 group I member 2; assay: Molecular glue activity at HA-tagged CLR4-CRBN/2HA-tagged PXR fused HiBiT-tagged FKBP12 (F36V) mutant (unknown origin) expressed in HepG2 cells assessed as induction of PXR degradation measured after 24 hrs by Nano-Glo HiBiT assay; type: cell-based; conditions: hepg2, 24 h
# [17] = target: T1, Protein cereblon/Peptidyl-prolyl cis-trans isomerase FKBP1A/Nuclear receptor subfamily 1 group I member 2; assay: Molecular glue activity at HA-tagged […]/2HA-tagged PXR fused HiBiT-tagged FKBP12 (F36V) mutant (unknown origin) expressed in HepG2 cells assessed as induction of PXR degradation by measuring change in CRBN expression at 0.0001 uM measured after 24 hrs by Western blot analysis relative to control; type: cell-based; conditions: hepg2, 24 h
# [18] = tested on: HepG2; assay: Binding affinity to 2HA-tagged PXR fused HiBiT-tagged FKBP12 (F36V) mutant (unknown origin) expressed in HepG2 cells assessed as change in FKBP-PXR expression at 0.001 uM measured after 24 hrs by Western blot analysis relative to control; type: cell-based; conditions: Homo sapiens
# [19] = target: T1, Protein cereblon/Peptidyl-prolyl cis-trans isomerase FKBP1A/Nuclear receptor subfamily 1 group I member 2; assay: Molecular glue activity at HA-tagged […]/2HA-tagged PXR fused HiBiT-tagged FKBP12 (F36V) mutant (unknown origin) expressed in HepG2 cells assessed as induction of PXR degradation by measuring change in FKBP-PXR expression at 0.1 uM measured after 24 hrs by Western blot analysis relative to control; type: cell-based; conditions: hepg2, 24 h
# [20] = target: T1, Protein cereblon/Peptidyl-prolyl cis-trans isomerase FKBP1A/Nuclear receptor subfamily 1 group I member 2; assay: Molecular glue activity at HA-tagged […]/2HA-tagged PXR fused HiBiT-tagged FKBP12 (F36V) mutant (unknown origin) expressed in HepG2 cells assessed as induction of PXR degradation by measuring change in FKBP-PXR expression at 0.001 uM measured after 24 hrs by Western blot analysis relative to control; type: cell-based; conditions: hepg2, 24 h
# [21] = tested on: SNU-C4; assay: Cytotoxicity against PXR knock in human SNU-C4 cells measured after 72 hrs by celltiter-glo assay; type: functional
# [22] = tested on: SNU-C4; assay: […] of GSPT2 expression in PXR knock in human SNU-C4 cells at 5 uM measured after 12 hrs by TMT-MS analysis; type: functional, cell-based
# [23] = tested on: SNU-C4; assay: Down regulation of FOS expression in PXR knock in human SNU-C4 cells at 5 uM measured after 12 hrs by TMT-MS analysis; type: functional, cell-based
# [24] = tested on: SNU-C4; assay: Up regulation of CYP1A1 expression in PXR knock in human SNU-C4 cells at 5 uM measured after 12 hrs by TMT-MS analysis; type: functional, cell-based
# [25] = target: T2, Nuclear receptor subfamily 1 group I member 2 (Homo sapiens, UniProt O75469); assay: Induction of PXR degradation in PXR knock in human SNU-C4 cells at 10 uM measured after 2 to 48 hrs by Western blot analysis; type: cell-based; conditions: snu-c4, 10 µM, time 2-48 hrs
# T2 sequence (O75469 whole entry): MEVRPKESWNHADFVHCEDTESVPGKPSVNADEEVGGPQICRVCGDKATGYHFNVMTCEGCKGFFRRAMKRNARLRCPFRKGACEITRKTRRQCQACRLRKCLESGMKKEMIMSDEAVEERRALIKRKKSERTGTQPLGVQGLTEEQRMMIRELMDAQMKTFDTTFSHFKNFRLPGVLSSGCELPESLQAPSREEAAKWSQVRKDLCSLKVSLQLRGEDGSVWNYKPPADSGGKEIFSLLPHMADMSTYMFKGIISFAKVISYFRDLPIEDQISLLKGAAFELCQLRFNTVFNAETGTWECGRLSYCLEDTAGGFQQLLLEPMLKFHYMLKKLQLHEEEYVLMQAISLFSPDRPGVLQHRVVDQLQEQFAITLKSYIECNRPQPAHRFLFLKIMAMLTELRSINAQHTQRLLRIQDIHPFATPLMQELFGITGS
# [26] = target: Eukaryotic peptide chain release factor GTP-binding subunit ERF3A (Homo sapiens) (UniProt P15170); assay: Induction of GSPT1 degradation in PXR knock in human SNU-C4 cells at 0.001 to 10 uM measured after 24 hrs by Western blot analysis; type: cell-based; conditions: dose 0.001-10 µM
# Sequence of Eukaryotic peptide chain release factor GTP-binding subunit ERF3A (Homo sapiens) (P15170 whole entry): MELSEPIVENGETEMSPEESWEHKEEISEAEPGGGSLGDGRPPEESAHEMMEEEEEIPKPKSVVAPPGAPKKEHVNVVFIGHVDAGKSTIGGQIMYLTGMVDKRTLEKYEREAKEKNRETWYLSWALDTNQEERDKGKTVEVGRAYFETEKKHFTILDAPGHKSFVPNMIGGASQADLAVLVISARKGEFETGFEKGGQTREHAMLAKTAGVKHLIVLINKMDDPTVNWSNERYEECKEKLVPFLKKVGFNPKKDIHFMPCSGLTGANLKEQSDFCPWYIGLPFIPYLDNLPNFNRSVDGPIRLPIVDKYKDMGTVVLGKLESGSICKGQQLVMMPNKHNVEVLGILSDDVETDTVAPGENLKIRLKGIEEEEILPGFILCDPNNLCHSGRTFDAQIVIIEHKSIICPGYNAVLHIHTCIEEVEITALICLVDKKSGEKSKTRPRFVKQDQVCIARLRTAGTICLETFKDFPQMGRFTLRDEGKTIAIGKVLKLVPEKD
# [27] = target: T2, Nuclear receptor subfamily 1 group I member 2; assay: Induction of PXR degradation in PXR knock in human SNU-C4 cells at 5 uM measured after 12 hrs by Western blot analysis relative to control; type: cell-based; conditions: snu-c4, 12 h
# [28] = tested on: SNU-C4; assay: […] of ZFP91 expression in PXR knock in human SNU-C4 cells at 5 uM measured after 12 hrs by TMT-MS analysis; type: functional, cell-based
# [29] = tested on: SNU-C4; assay: Up regulation of BRIP1 expression in PXR knock in human SNU-C4 cells at 5 uM measured after 12 hrs by TMT-MS analysis; type: functional, cell-based
# [30] = tested on: SNU-C4; assay: […] of GSPT1 expression in PXR knock in human SNU-C4 cells at 5 uM measured after 12 hrs by TMT-MS analysis; type: functional, cell-based
# [31] = tested on: SNU-C4; assay: Down regulation of PXR mRNA expression in PXR knock in human SNU-C4 cells at 10 uM measured after 2 to 48 hrs by RT-qPCR analysis; type: functional, cell-based; conditions: time 2-48 hrs
# [32] = target: T2, Nuclear receptor subfamily 1 group I member 2; assay: Induction of PXR degradation in PXR knock in human SNU-C4 cells at 0.0001 to 1 uM measured after 24 hrs by Western blot analysis; type: cell-based; conditions: snu-c4, 24 h, dose 0.0001-1 µM
smiles,measurement,setting,value
COc1ccc(OC)c(-n2nnc(C(=O)Nc3cc(NC(=O)CNc4cccc5c4C(=O)N(C4CCC(=O)NC4=O)C5=O)cc(C(C)(C)C)c3)c2C)c1 (stereo not drawn),pEC50,[1],7.82
CC[C@H](C(=O)N1CCCC[C@H]1C(=O)O[C@H](CCc1ccc(OC)c(OC)c1)c1ccccc1OCC(=O)NCCCCCCOc1cccc2c1C(=O)N(C1CCC(=O)NC1=O)C2=O)c1cc(OC)c(OC)c(OC)c1 (stereo partly drawn),fold change (FC),[2],1.1
same,fold change (FC),[3],2.2
same,fold change (FC),[4],1.2
same,fold change (FC),[5],1.4
same,fold change (FC),[6],1.1
same,fold change (FC),[7],0.9
same,fold change (FC),[8],0.8
same,fold change (FC),[9],1
same,fold change (FC),[10],0.5
same,fold change (FC),[11],0.8
same,fold change (FC),[12],1.1
same,fold change (FC),[13],0.9
same,fold change (FC),[14],1.3
same,fold change (FC),[15],3.6
same,Activity,[16],Active
same,fold change (FC),[17],0.9
same,fold change (FC),[18],1.3
same,fold change (FC),[19],0.5
same,fold change (FC),[20],0.7
COc1ccc(OC)c(-n2nnc(C(=O)Nc3cc(NCCNc4cccc5c4C(=O)N(C4CCC(=O)NC4=O)C5=O)cc(C(C)(C)C)c3)c2C)c1 (stereo not drawn),pEC50,[1],7.62
COc1ccc(OC)c(-n2nnc(C(=O)Nc3cc(OCCNc4cccc5c4C(=O)N(C4CCC(=O)NC4=O)C5=O)cc(C(C)(C)C)c3)c2C)c1 (stereo not drawn),pEC50,[1],7.64
COc1ccc(OC)c(-n2nnc(C(=O)Nc3cc(Oc4cccc5c4C(=O)N(C4CCC(=O)NC4=O)C5=O)cc(C(C)(C)C)c3)c2C)c1 (stereo not drawn),CC50,[21],3.3 nM
same,Activity,[22],Active
same,Activity,[23],Active
same,Activity,[24],Active
same,Activity,[25],Active
same,Activity,[26],Active
same,Activity,[27],50%
same,Activity,[28],Active
same,Activity,[29],Active
same,Activity,[16]; DDE = dose-dependent effect,Dde
same,Activity,[30],Active
same,pEC50,[1],7.51
same,Activity,[31],Active
Cc1ccc(NC(=O)NCc2ccc3c(c2)CN(C2CCC(=O)NC2=O)C3=O)cc1Cl (stereo not drawn),CC50,[21],440 nM
same,Activity,[32],Active
COc1ccc(OC)c(-n2nnc(C(=O)Nc3cc(OC(=O)CNc4cccc5c4C(=O)N(C4CCC(=O)NC4=O)C5=O)cc(C(C)(C)C)c3)c2C)c1 (stereo not drawn),pEC50,[1],7.77
